US4778796A, “ω-(3-pyridyl)alkenamide derivatives and anti-allergenic pharmaceutical compositions containing same” (Dainippon Pharmaceutical Co., Ltd., priority 1985, dated 1988)
Read-outs that look alike come from different tables or passages of the source.

Columns and labels:
[1] = tested on: passive cutaneous anaphylaxis (PCA); test: Inhibitory effect on passive cutaneous anaphylaxis (PCA) in rats; format: in vivo, rat (male Wistar); settings: Rattus norvegicus; 20 mg/kg, oral, 1 hour before antigen challenge; read-out: Inhibition (PCA in rats)
Method: (1) Inhibitory effect on passive cutaneous anaphylaxis (PCA) in rats:
This test was carried out by the method of Perper et al. [cf.
Male Wistar rats (130-180 g) were injected with 0.1 ml of a dilute solution of mouse antiserum to egg albumin in two sites of the shaved ventral skin. Forty-eight hours later each rat was challenged by an intravenous injection of 2 mg of the antigen together with 1 ml of a 0.5% Evan's blue saline solution. The rats were sacrificed 30 minutes after the challenge. The area of the blueing lesions was measured on the undersurface of the skin. The average value of the two lesions of each rat was regarded as the response of the rat. Test compounds in a dose of 20 mg/kg, dissolved or suspended in a 0.5% aqueous tragacanth solution, were administered orally 1 hour before the antigen challenge. The inhibitory rate was determined by comparing the responses of the rats given each test compound with those of the rats given only a 0.5% aqueous tragacanth solution. Each group of 3 rats was used for each test compound. The mouse antiserum to egg albumin was produced by the method of Levine and Vaz [cf. Int. Arch. Allergy Appl.

[2] = tested on: experimental asthma; test: Inhibitory effect on experimental asthma in rats; format: in vivo, rat (male Wistar); settings: Rattus norvegicus, po, 1 hour before antigen challenge
Method: (2) Inhibitory effect on experimental asthma in rats: This test was carried out by the method of Church and Miller [cf. Brit. […] Male Wistar rats (200-250 g) were sensitized by an intraperitoneal injection of 1 ml of a 0.01% egg albumin solution containing 1 mg of Al(OH)3. Two weeks later, the rats were anesthetized with 1.3 g/kg of urethane. The trachea and jugular vein were cannulated. Respiratory volume and velocity were measured by attaching one end of the tracheal cannula to respiratory volume meter connected to a carrier amplifier and an integrator. The rats were challenged by an intravenous injection of 4 mg/kg of egg ablumin 30 minutes after the anesthesia. Test compounds, dissolved or suspended in a 0.5% aqueous tragacanth solution, were administered orally 1 hour before the antigen challenge. Each group of 4 rats was used for each dose of the test compound. ED50 values were calculated from the best fit linear regression line of inhibitory rates of respiratory volume and velocity in each dose.

[3] = tested on: histamine-induced contraction of isolated guinea pig trachea; test: Inhibitory effect on histamine-induced contraction of isolated guinea pig trachea; parameters: species or system guinea pig (male Hartley)
Method: (2) Inhibitory effect on histamine-induced contraction of isolated guinea pig trachea:
Male Hartley guinea pigs (400-700 g) were used. Zig-zag strips of guinea pig trachea were prepared by the method of Emmerson and Mackay [cf. J. Pharm. […] Dose-response curves for histamine were obtained before and 5 minutes after the addition of test compounds. Inhibitory rate was calculated from contraction heights in 3×10^-5 M of histamine without vs. with test compound.

[4] = tested on: contact hypersensitivity to oxazolone; test: Inhibitory effect on contact hypersensitivity to oxazolone in mice; format: in vivo, mouse (male ICR); settings: topical, 0.3 mg/ear; 24 hours after challenge
Method: (3) Inhibitory effect on contact hypersensitivity to oxazolone in mice:
This test was carried out by the method of Evans et al. [cf. Brit.
Male ICR mice (18-20 g) were used. The abdominal region of the mice was carefully clipped with an electric clipper, and 0.1 ml of a 0.5 w/v % oxazolone solution in absolute ethanol was gently rubbed into the clipped area. Five days after the sensitization 20 μl of a 0.5 w/v % oxazolone solution in acetone or chloroform, or the solution containing test compound was applied to both sides of the right ear. The left ear was not treated. Twenty-four hours after the challenge, the animals were sacrificed with diethyl ether. The circular parts (5.5 mm in diameter) of both ears were removed by punching and then weighed. The inhibitory rate was determined by comparing the ear swelling of the mice treated with oxazolone containing test compound with that of the mice treated with oxazolone. Each group of 8 mice was used for each dose of the test compound.

[5] = biological target: T1, 5-lipoxygenase (Cavia porcellus, UniProt A0A286X958); test: Inhibitory effect on 5-lipoxygenase activity in guinea pig leukocytes; format: biochemical, guinea pig (male Hartley); settings: 10^-5 M; read-out: 5-Lipoxygenase inhibit. activity, Inhibition
T1 construct: The cytosol fraction of peritoneal exudate cells from male Hartley guinea pigs (400-700 g) was used as 5-lipoxygenase; from tissue; host or cells: cytosol fraction of peritoneal exudate cells (leukocytes) of male Hartley guinea pigs
T1 sequence (A0A286X958 1-674): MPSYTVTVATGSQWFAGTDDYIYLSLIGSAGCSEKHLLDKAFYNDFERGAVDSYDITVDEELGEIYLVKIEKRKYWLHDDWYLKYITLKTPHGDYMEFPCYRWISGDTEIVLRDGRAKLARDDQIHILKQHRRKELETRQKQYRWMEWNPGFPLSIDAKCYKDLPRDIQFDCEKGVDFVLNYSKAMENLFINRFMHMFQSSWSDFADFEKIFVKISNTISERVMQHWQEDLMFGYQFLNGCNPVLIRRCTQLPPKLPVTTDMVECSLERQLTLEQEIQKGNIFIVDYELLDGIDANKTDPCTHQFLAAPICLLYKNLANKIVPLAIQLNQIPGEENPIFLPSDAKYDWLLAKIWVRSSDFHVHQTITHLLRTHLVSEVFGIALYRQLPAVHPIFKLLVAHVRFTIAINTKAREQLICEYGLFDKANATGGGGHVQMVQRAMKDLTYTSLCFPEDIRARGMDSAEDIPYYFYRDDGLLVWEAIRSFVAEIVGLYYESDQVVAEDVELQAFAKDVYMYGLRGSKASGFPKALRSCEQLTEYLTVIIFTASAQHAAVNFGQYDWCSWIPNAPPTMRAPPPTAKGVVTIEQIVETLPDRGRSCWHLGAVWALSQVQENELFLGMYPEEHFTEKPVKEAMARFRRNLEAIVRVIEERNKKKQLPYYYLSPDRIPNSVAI
Method: (1) Inhibitory effect on 5-lipoxygenase activity in guinea pig leukocytes:
This test was carried out by the method of Miyamoto and Obata (cf. "Perspectives in Prostaglandin Research," ed. by Y. Shiokawa et al., Excepta Medica, Amsterdam-Oxford-Princeton, 1983, p78) with minor modifications.
The cytosol fraction of peritoneal exudate cells from male Hartley guinea pigs (400-700 g) was used as 5-lipoxygenase. The standard reaction mixture contained 50 mM potassium phosphate buffer, 1 mM CaCl2, 1 mM glutathione, 1 mM adenosine triphosphoric acid, 10 μM indomethacin and the enzyme. The mixture was incubated for 5 minutes at 30° C. after addition of [1-^14 C]arachidonic acid (0.02 μCi). The reaction was terminated by addition of 0.6 ml of the cold organic solvents (diethyl ether/methanol/0.2M citric acid=30/4/1). The organic layer (300 μl) was applied onto a precoated silica gel 60F254 glass plate (E. Merck, West Germany). Radioactivity on the plate was monitored by a radiochromatogram scanner (Packard, U.S.A.). 5-Lipoxygenase activity was calculated according to the following equation. [formula]
The effects of the test compounds were expressed in terms of percent inhibition.

inhibition at 10 µM [5] [%]	Structure (SMILES)	inhibition in vivo at 20 mg/kg [1] [%]	also measured
–	O=C(C=Cc1cccnc1)NCCCCN1CCN(C(c2ccccc2)c2ccccc2)CC1 [Example 1, N-[3-(3-pyridyl)acryloyl]-4-(4-diphenylmethyl-1-piperazinyl)butylamine]	62.3	ED50 ([2]; respiratory velocity, read-out: ED50, respiratory velocity): 14.1 mg/kg; ED50 ([2]; respiratory volume, read-out: ED50, respiratory volume): 13.3 mg/kg; IC50 ([3]; 3×10^-5 M histamine, isolated guinea pig trachea, read-out: Anti-hist. activity IC50): 960 nM; antihistamine activity (in words) ([3]; compared with ketotifen fumarate): potent antihistamine activity, though fairly inferior to that of ketotifen fumarate
72.7	Cc1ncc(C=CC(=O)NCCCCN2CCN(C(c3ccccc3)c3ccccc3)CC2)c(CO)c1O [Example 38, N-[3-(5-hydroxy-4-hydroxymethyl-6-methyl-3-pyridyl)acryloyl]-4-(4-diphenylmethyl-1-piperazinyl)butylamine]	–	% Inhibition of ear swelling [4]: 83.8%
–	O=C(C=Cc1cccnc1)NCCCCN1CCN(C(c2ccc(F)cc2)c2ccc(F)cc2)CC1 [Example 62]	56.1	–
–	Cc1ncccc1C=CC(=O)NCCCCN1CCN(C(c2ccccc2)c2ccccc2)CC1 [Example 53]	68.8	–
61.2	Cc1ccc(C=CC(=O)NCCCCN2CCN(C(c3ccccc3)c3ccccc3)CC2)c(C)n1 [Example 50]	66.8	–
66.2	COc1ccc(C=CC(=O)NCCCCN2CCN(C(c3ccccc3)c3ccccc3)CC2)cn1 [Example 25]	–	–
–	O=C(C=Cc1ccc(Oc2cccc(F)c2)nc1)NCCCCN1CCN(C(c2ccccc2)c2ccccc2)CC1 [Example 29]	60.7	–
–	Cc1ccc(C(c2ccccc2)N2CCN(CCCCNC(=O)C=Cc3cccnc3)CC2)cc1 (centres unmarked) [Example 58]	82.9	–
48.6	Cc1ccc(C=CC(=O)NCCCCCN2CCN(C(c3ccccc3)c3ccccc3)CC2)cn1 [Example 15]	–	–
54.6	O=C(C=Cc1ccc(Cl)nc1)NCCCCN1CCN(C(c2ccccc2)c2ccccc2)CC1 [Example 37]	–	–
59.6	O=C(C=Cc1ccccn1)NCCCCN1CCN(C(c2ccccc2)c2ccccc2)CC1 [Example 11]	–	–
68.6	Cc1ccc(O)c(C=CC(=O)NCCCCN2CCN(C(c3ccccc3)c3ccccc3)CC2)n1 [Example 20]	–	–
–	C/C(=C\c1ccc(C)nc1)C(=O)NCCCCN1CCN(C(c2ccccc2)c2ccccc2)CC1 [Example 77]	58.2	–
–	O=C(C=CC=Cc1cccnc1)NCCCCN1CCN(C(c2ccccc2)c2ccccc2)CC1 [Example 85]	66.4	–
–	O=C(C=Cc1cccnc1)NCCCCN1CCN(C(c2ccccc2)c2ccc(Br)cc2)CC1 (centres unmarked) [Example 64]	55.8	–
–	O=C(C=Cc1cncc(F)c1)NCCCCN1CCN(C(c2ccccc2)c2ccccc2)CC1 [Example 3, N-[3-(5-fluoro-3-pyridyl)acryloyl]-4-(4-diphenylmethyl-1-piperazinyl)butylamine]	65	–
–	O=C(C=Cc1cccnc1)NCCCCN1CCCN(C(c2ccccc2)c2ccccc2)CC1 [Example 6, N-[3-(3-pyridyl)acryloyl]-4-(4-diphenylmethyl-1-homopiperazinyl)butylamine1/4 hydrate]	70	–
–	O=C(C=Cc1cncc(Cl)c1)NCCCCN1CCN(C(c2ccccc2)c2ccccc2)CC1 [Example 47]	66.4	–
45.5	O=C(C=Cc1ccc(O)nc1)NCCCCN1CCN(C(c2ccccc2)c2ccccc2)CC1 [Example 44]	–	–
–	CC/C(=C\c1cccnc1)C(=O)NCCCCN1CCN(C(c2ccccc2)c2ccccc2)CC1 [Example 5, N-[3-(3-pyridyl)-2-ethylacryloyl]-4-(4-diphenylmethyl-1-piperazinyl)butylamine sesquifumarate]	67.8	–
–	Cc1ccc(C=CC=CC(=O)NCCCCN2CCN(C(c3ccccc3)c3ccccc3)CC2)cn1 [Example 87]	68.8	–
–	O=C(C=Cc1cccnc1)NCC=CCN1CCN(C(c2ccccc2)c2ccccc2)CC1 [Example 90, N-[3-(3-pyridyl)acryloyl]-4-(4-diphenylmethyl-1-piperazinyl)-2-butenylamin]	83.3	% Inhibition of ear swelling [4]: 46.3%
43.5	C/C(=C\c1cccnc1)C(=O)NCCCCN1CCN(C(c2ccccc2)c2ccccc2)CC1 [Example 76]	78.9	% Inhibition of ear swelling [4]: 65.8%
60.3	O=C(C=CC=Cc1cccnc1)NCCCN1CCN(C(c2ccccc2)c2ccccc2)CC1 [Example 84]	–	–
–	O=C(NCCCCN1CCN(C(c2ccccc2)c2ccccc2)CC1)/C(=C/c1cccnc1)c1ccccc1 [Example 79]	58	–
–	Cc1ccc(C(c2ccccc2)N2CCN(CCCCNC(=O)C=Cc3ccc(C)nc3)CC2)cc1 (centres unmarked) [Example 48]	73.9	–
